The values below come from patent US8722343B2, “Methods and compositions for the diagnosis and treatment of diabetes” (priority 2008, dated 2014).

The nature of data set [1]: MTT cell viability assay in βTC3 cells. Format: cell-based, mouse. The settings on record: mouse; 0.05 mM DHK, five days; read-out: decrease in RGR (βTC3 viability). The procedure: 1A: Glutamate induces a dose-dependent beta-cell death. 24 hrs after plating, αTC1 and βTC3 cells were incubated for five days with the indicated glutamate concentrations and viability was assessed by MTT assay. Data are presented as % Relative Growth Rate (RGR) versus controls (100%) and represent the mean±SE of at least 7 independent experiments (n=6). * p<0.01 vs ctrl; ° p<0.01 vs Glu 5 mM in αTC1.
1C: β-cell death is prevented by pharmacological inhibition of ionotropic channels. 24 hrs after plating, αTC1 and βTC3 cells were incubated for five days with 0.025 mM CNQX (left panel) or 0.1 mM APV (right panel), in the presence or the absence of 5 mM glutamate and viability was assessed by MTT assay. Data are presented as % RGR versus control samples (100%) and represent the mean±SE of three independent experiments (n=5). * p<0.05
6B. MTT assay. 24 hrs after plating, αTC1 and βTC3 cells were incubated for five days with different DHK concentrations and viability was assessed by MTT assay. Data are presented as % RGR versus control (100%) and represent the mean±SE of three independent experiments (n=8). * (DHK versus control) p<0.05
8B: MTT assay: 24 hrs after plating, βTC3 cells were incubated for five days with the indicated ceftriaxone concentrations in the presence or absence of 5 mM glutamate and viability was assayed by MTT assay. Data are presented as % RGR versus control (100%) and represent the mean±SE of three independent experiments (n=8). *(ceftriaxone versus relative control) p<0.05.
βTC3 and αTC1 cells were derived from progeny of transgenic mice expressing SV40 large T-antigen under control of the rat insulin II 5′-flanking region or rat preproglucagon 5′-flanking region, respectively (Powers et al, 1990) and were originally provided by Douglas Hanahan (Department of Biochemistry and Biophysics, University of California, San Francisco, Calif.). βTC3 were grown in RPMI 1640 11 mM glucose, supplemented with 10% heat inactivated fetal bovine serum, 2 mM L-glutamine, and 100 IU/ml streptomycin/penicillin, as previously described (Galbiati et al, 2002). Experiments were performed between the 27 and 33 passage of cell culture.
3-(4,5-Dimethylthiazol-2-yl)-2,5-diphenyltetrazolium bromide (MTT) assay. βTC3 cells were seeded at a density of 8×10^3 cells/well onto 96-well culture plates. Cells were allowed to attach and grow for 24 h in standard medium. Then medium was replaced with fresh medium containing glutamate, DHK (Dihydrokainic Acid, Sigma Aldrich), glutamate receptor inhibitors APV and CNQX (Sigma Aldrich) or ceftriaxone (Sigma Aldrich) at the indicated concentrations. […] Coloured formazan product was determined spectrophotometrically at 540 nm. 20 islets/tube were used to assess viability in human isolated islets. Data are expressed as % Relative Growth Rate (% RGR) versus control samples.
In general terms: Tetrazolium dyes change colour on reduction, which living cells bring about.

Data set [2] concerns the target T1, GLT1 (Homo sapiens, UniProt P43004).
T1 construct: from tissue; host or cells: isolated human pancreatic islets from cadaveric multiorgan donors
The experiment in a line: Na-dependent [3H]-D-aspartate uptake in isolated human islets. Format: cell-based. The arrangement: dose or concentration left out as unconfirmed. Here is the method:
3B: 3H-D Aspartate uptake. The Na-dependent (NaCl) and Na-independent (ChCl) [3H]-D-Aspartate uptake was measured in 40, hand picked, isolated human islets. […] Data are expressed as % of Na-dependent uptake (NaCl) and represent the mean±SE of at least three independent experiments performed in triplicate. * (DHK versus controls) P<0.001.
Human pancreatic islets were isolated from the pancreases of cadaveric multiorgan donors by using the procedure already described by Ricordi (Ricordi, et al, 1988). The islets used in this study were isolated from eight different organs. After the isolation, the islets were purified from the contaminant exocrine tissue by centrifugation on Ficoll gradients, obtaining a final purity that ranged from 60% to 80%, as assayed by dithizone staining (Ricordi et al, 1988). Islets were then cultured in RPMI 1640 tissue culture medium. After a 48-h stabilization culture, old medium was replaced with fresh medium and islets were cultured until used for insulin secretory studies, RNA extraction and uptake experiments. For apoptosis assay, fresh medium containing glutamate (0.5 or 5 mM) or DHK (0.05 or 0.1 mM) was replaced and islets were cultured for additional five days.
150.000 cells/well were plated in a 24-wells plate, and grown until confluence. […]

Data set [3] has as its target T2, GLT1 (Mus musculus, UniProt P43006).
T2 construct: Since GLT1 is endogenously expressed in beta-TC3; endogenous in cells; host or cells: βTC3 mouse pancreatic beta-cell line
In words: Na-dependent [3H]-D-aspartate uptake in βTC3 cells. The data set is classed as cell-based. The procedure:
2D: 3H-D-Aspartate uptake. Four days after plating the Na-dependent (NaCl) and Na-independent (ChCl) [3H]-D-Aspartate uptake was measured in αTC1 and βTC3 cells. Data are expressed as cpm/well/10 min and represent the mean±SE of at least three independent experiments performed in triplicate. * (NaCl vs ChCl) P<0.001; ° (DHK versus control) P<0.001.
3×10^5 βTC3 cells/well were plated onto 24-well culture plates and the Na-dependent [3H]-D-Aspartate uptake was measured in the presence or the absence of increasing DHK concentrations (0.05-0.3 mM). Data are expressed as cpm/well/10 min and represent the mean±SE of at least three independent experiments performer in triplicate. * (DHK versus controls) P<0.001.
150.000 cells/well were plated in a 24-wells plate, and grown until confluence. After two washes in sodium-free solution (150 mM ChCl, 2 mM KCl, 1 mM CaCl2, 1 mM MgCl2, 10 mM Hepes pH 7.5), cells were incubated for 10 minutes in 200 μl of Na^+-dependent (150 mM NaCl 2 mM KCl, 1 mM CaCl2, 1 mM MgCl2, 10 mM Hepes pH 7.5) or Na^+-independent (sodium-free solution) uptake solution containing 5 μCi/ml of [^3H]D-Aspartic acid (specific activity 37 Ci/mmol; Amersham Biosciences). The amino acid uptake was stopped by washing the cells twice in ice-cold sodium-free solution. Cells were dissolved in 150 μl of SDS 1% for liquid scintillation counting. […]

T2 sequence (P43006 1-569 isoform P43006-2): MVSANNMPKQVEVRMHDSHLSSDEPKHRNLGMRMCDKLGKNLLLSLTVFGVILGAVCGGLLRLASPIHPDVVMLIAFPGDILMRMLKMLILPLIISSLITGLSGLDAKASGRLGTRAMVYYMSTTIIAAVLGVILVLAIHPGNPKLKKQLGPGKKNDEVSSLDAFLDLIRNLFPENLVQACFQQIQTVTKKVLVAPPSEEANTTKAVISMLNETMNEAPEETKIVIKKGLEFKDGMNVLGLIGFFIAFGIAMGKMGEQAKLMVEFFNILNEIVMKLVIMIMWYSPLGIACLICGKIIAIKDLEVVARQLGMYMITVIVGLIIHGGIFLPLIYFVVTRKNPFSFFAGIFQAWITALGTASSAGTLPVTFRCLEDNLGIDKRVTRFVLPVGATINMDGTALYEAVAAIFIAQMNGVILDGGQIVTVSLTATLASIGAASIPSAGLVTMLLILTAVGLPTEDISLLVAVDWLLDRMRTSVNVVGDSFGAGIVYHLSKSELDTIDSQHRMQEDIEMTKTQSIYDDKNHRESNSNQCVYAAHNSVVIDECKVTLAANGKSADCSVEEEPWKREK
T1 sequence (P43004 whole entry): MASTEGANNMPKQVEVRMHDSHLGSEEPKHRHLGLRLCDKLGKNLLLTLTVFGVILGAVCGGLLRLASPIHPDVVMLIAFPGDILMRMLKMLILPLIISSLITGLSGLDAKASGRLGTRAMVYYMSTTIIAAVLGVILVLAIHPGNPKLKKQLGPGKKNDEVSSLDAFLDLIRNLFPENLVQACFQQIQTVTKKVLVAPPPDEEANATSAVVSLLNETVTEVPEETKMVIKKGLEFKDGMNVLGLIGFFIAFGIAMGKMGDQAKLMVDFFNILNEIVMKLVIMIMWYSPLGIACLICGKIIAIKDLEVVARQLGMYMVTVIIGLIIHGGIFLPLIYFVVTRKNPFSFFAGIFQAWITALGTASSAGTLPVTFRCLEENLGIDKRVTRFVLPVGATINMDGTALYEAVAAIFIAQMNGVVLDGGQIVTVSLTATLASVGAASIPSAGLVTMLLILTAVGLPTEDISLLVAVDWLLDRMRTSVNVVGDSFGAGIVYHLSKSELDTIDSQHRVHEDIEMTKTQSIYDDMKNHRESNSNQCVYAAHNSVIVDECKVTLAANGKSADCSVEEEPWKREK

`CC(C)[C@H]1CN[C@H](C(=O)O)[C@H]1CC(=O)O` [DHK, Dihydrokainic Acid]: the cytotoxicity at 5 days, 0.05 mM in data set [1] stood at 6.17%. The “Na-dependent transport of aspartate” value on GLT1 [2] is “completely inhibited”. In addition, the Na-dependent aspartate uptake entry at GLT1 [3] (1 mM DHK) is recorded as “completely inhibited”. For the same compound, the half-inhibitory concentration (IC50) – broadly, the concentration needed to halve the response being measured – at GLT1 [3] (DHK 0.05-0.3 mM, read-out: IC50, inhibition of Na-dependent D-aspartate uptake) is 50 µM.
